Data: patent US5424395A (priority 1992, dated 1995)
Entries after “also recorded” stand apart in the source; their conditions may differ. Where no end group is shown, it is not given here.

Key:
[1] = extracellular fluid (ECF) from tobacco leaf in 50 mM Tris, pH 7.4; details: 37° C., up to one hour
[2] = system: extracellular plant proteases; assay: Resistance to proteolytic degradation by leaf extracellular fluid (ECF), HPLC; assay type: in vitro ADME, tobacco; details: 2.5% (v/v) ECF, 50 mM Tris pH 7.4, 37° C., one hour, relative to area of parent peak with no added ECF
Source text: To determine the sensitivity of AMPPPs to extracellular proteases, and to determine the site of processing by these proteases, a system was designed to obtain extracellular fluid from leaves of maize, tobacco, and potato and to use these to test the stability of AMPPPs.
Extracellular fluid (ECF) was obtained in accordance with Z. Klement, "Method Of Obtaining Fluid From the Intercellular Space of Foliage and the Fluid's Merit As Substrate For Phytobacterial Pathogens," supra by cutting interveinal pieces from tobacco leaf after they were rinsed in deionized water. The segments were submerged in water in a vacuum desiccator and vacuum was applied for five to 10 minutes. The vacuum was released slowly, the leaves were blotted dry and four to five pieces were rolled and placed in a 50 mL disposable syringe barrel cut down so as to be able to fit in a swinging bucket centrifuge rotor. The syringe barrel was placed in a 50 mL screw cap conical centrifuge tube and centrifuged in a swinging bucket rotor at 500×g for 30 minutes. […]
Peptides were analyzed by reverse phase chromatography on a 4.6 mm×250 mm Vydac C-4 protein column (Nest Group, Southboro, Mass.) using a 0% to 60% acetonitrile gradient in 0.1% TFA in 30 minutes on a Hewlett-Packard HP1090 high pressure liquid chromatograph (Hewlett-Packard, Avondale, Pa.). […] These peptides were purified and analyzed by FAB-MS and amino acid analysis. […]

[3] = system: Erwinia carotovora carotovora strain SR319 (Ecc SR319); assay: Antibacterial bioassay, minimum complete inhibitory concentration (MCIC); assay type: cell-based; details: for activity against Ecc SR319 (in words): even at concentrations higher than 150 micrograms AMPPP/mL; for MEAN MCIC VALUE: lowest peptide concentration with no bacterial growth, after 20 hours, Luria broth, 28° C., mean of at least three replicate experiments
Experimental: Erwinia carotovora carotovora strain SR319 (Ecc SR319) (a gift of Dr. C. H. Liao, USDA-ARS, Philadelphia, Pa.) was streaked on a plate of LB agar and grown overnight at 28° C. After 24 hours, a loopful of Ecc SR319 was picked from the agar plate and was added to 3 mL of Luria broth (10 g Bacto-tryptone, 5 g Bacto-yeast extract, and 10 g sodium chloride per liter of solution; autoclaved sterile) in a capped, sterile 10 mL test tube. This culture was grown overnight before its optical density at 630 nm was recorded using a Dynatech MR600 microplate reader (Dynatech Laboratories, Inc., Alexandria, Va.). A portion of the overnight culture was adjusted with Luria broth to obtain a culture with an optical density at 630 nm of 0.2. About 250 microliters of this culture was added to 2250 microliters of Luria broth in a capped, sterile 10 mL test tube before this diluted culture was grown for 3 hours at 28° C. in a shaking incubator. The optical density at 630 nm of the freshly grown culture was recorded and a portion of this mid-logarithmic growth phase culture was diluted 1000-fold with Luria broth to an approximate concentration of about 10^5 colony forming units per mL of culture. About 85 microliters of this diluted culture was added to 12 wells in a 96 well microtiter plate for each AMPPP to be tested, with 1-4 replicate sets of 12 wells prepared for each AMPPP within a single experiment. Stock solutions of each AMPPP were prepared at a concentration of 1 mg/mL and 0-15 microliters of each peptide stock solution were added to a single well in the microtiter plate followed by a sufficient volume of water to bring the total well volume to 100 microliters. Typical peptide volumes assayed were 0, 1, 2, 3, 4, 5, 6, 7, 8, 9, 10 and 15 microliters, which corresponds to a final peptide concentration in the range of 0-150 micrograms/mL. The microtiter plates were sealed with parafilm and incubated on a shaking platform at 28° C. for 44 hours. The optical density of each Ecc SR319 culture well was recorded at 20 hours and then at 44 hours. A minimum complete inhibitory concentration (MCIC) was then determined for each replicate set of varying peptide concentrations for each AMPPP whereby the MCIC is defined as the lowest peptide concentration at which no bacterial growth was observed. Table I lists mean MCIC values computed after 20 hours of treatment from at least three replicate experiments with each AMPPP. "Met(S)(O)" and "Met(R)(O)" refer to the diastereomeric forms of a methionine sulfoxide residue.
Although most of the AMPPP compounds listed in Table I were greater than 95% homogeneous following reverse phase HPLC purification, AMPPPs #24-26 and #28 were only 50-80% pure following partial purification and salt exchange by ion exchange chromatography.

[4] = system: P3 Fusarium; assay: Antifungal bioassay (spore germination MCIC); assay type: cell-based, P3 Fusarium (field isolate); details: lowest concentration with no spore germination, after 24 hours
Experimental: (§1) Fungi are grown on an appropriate medium, in this case a potato dextrose agar plate, for several weeks. At the end of that period, the plate was flooded with about 5 mL of sterile distilled water to harvest spores. The spore concentration was determined by use of a hemocytometer and the spore suspension was stored in a sterile tube at 4° C. until it was needed. Then 82 microliters of potato dextrose broth and 3 microliters of spore suspension (ranging from 10^5 to 10^7 spores total) was then added to 12 wells in a 96 well microtiter plate for each AMPPP to be tested, with 1-4 replicate sets of 12 wells prepared for each AMPPP within a single experiment. […] The amount of spore germination and fungal growth was recorded as a qualitative measurement at each observation time using a system of pluses and minuses: [-] meant no germination having occurred, [+] meant swollen spores with an extended germ tube, [++] meant the beginnings of mycelial growth with the overall appearance of a loose lattice, and [+++] meant a dense mycelial growth with the overall appearance of a thick opaque meshwork. The MCIC value for each AMPPP tested was then recorded, where the MCIC value is defined as the lowest peptide concentration at which no spore germination occurred (rating=[-]). […]

[5] = system: Trichoderma reesei; assay: Antifungal bioassay (spore germination MCIC); assay type: cell-based; details: lowest concentration with no spore germination, after 24 hours
Experimental: as §1

[6] = system: P3 Fusarium; assay: Effect of ECF or spent media on antifungal activity of AMPPPs; assay type: cell-based; details: ECF source Tobacco Leaf, 10% (v/v); comparison of MCIC with and without ECF
Source text: It is critical to understand the effect of plant proteolytic enzymes on AMPPP activity because any AMPPP applied to crop plants will be in contact with plant tissues and any associated plant proteases. It is important to assess the bioactivity of an AMPPP which may be cleaved by one or more plant proteases as well as to recognize that such an event has occurred. An extract of extracellular fluid (ECF) as described in Example 14 is a useful reagent in determining such loss of antimicrobial activity of AMPPPs due to exposure to plant proteases in the extracellular compartment of plant tissues. Bioassay experiments were conducted with 300-1000 pregerminated P3 Fusarium spores essentially as described in Example 13 for various AMPPPs exposed to ECF from several crop species, or exposed to spent media collected as a supernatant from centrifuged three-day-old P3 Fusarium cultures grown in potato dextrose broth (PDB), corn stalk medium (CSM), or water as detailed below. The only major difference in the bioassay method used from that described in Example 13 was that the bioassay was conducted in a total culture volume of 10 microliters rather than 100 microliters. ECF was present in these bioassays at a final concentration of 10% (v/v) and was added concurrently with an AMPPP to the Fusarium spores at various AMPPP concentrations. […]

## GIGKFLFSAKKFGKAFVGEIMNS-OH
[1]
  cleaved bond: Phe7-Ser8

## GIGKFLHAAKKFGKAFVGEIMNS-OH
[1]
  cleaved bond: His7-Ala8

## GIGKFLHEAKKFGKAFVGEIMNS-OH
[1]
  cleaved bond: His7-Glu8

## GIGKFLHSAGKFGKAFVGEIMKS-OH
[1]
  cleaved bond: His7-Ser8

## GIGKFLHSAKKFGKAFVGEIMNS [AMPPP 1, Magainin 2-OH]
[2]
  Total Area Under Chromatogram Peaks: Fragment Gly^1 Xaa^7: 15.2%
[2]; cerebrospinal or other body fluid, read-out: Total Area Under Chromatogram Peaks: Parent AMPPP
  remaining at 1 h: 54.4%

## GIGKFLHSAKKFGKAFVGEIMNS-OH
[1]
  cleaved bond: His7-Ser8; also recorded: Met21-Asn22

## GIGKFLHTAKKFGKAFVGEIMNS-OH
[1]
  cleaved bond: His7-Thr8

## GIGKFLKSAKKFGKAFVGEIMNS-OH
[1]
  cleaved bond: Lys7-Ser8

## GIGKFLRSAKKFGKAFVGEIMNS-OH
[1]
  cleaved bond: Arg7-Ser8

## [Met^21 (R)(O)]Mag 2-OH [AMPPP 7]
[3]
  activity against Ecc SR319 (in words): not active
  MEAN MCIC VALUE: > 150 micrograms/mL
[4]
  Mean MCIC Values against: P3 Fusarium (10^7 spores): 50 micrograms/mL
[5]
  Mean MCIC Values against: Trichoderma reesei (10^6 spores): 75 micrograms/mL

## [Met^21 (S)(O)Mag 2-OH [AMPPP 6]
[3]
  activity against Ecc SR319 (in words): not active
  MEAN MCIC VALUE: > 150 micrograms/mL
[4]
  Mean MCIC Values against: P3 Fusarium (10^7 spores): 40 micrograms/mL
[6]
  Approximate % Reduction in Antifungal Activity by ECF: 50%
[5]
  Mean MCIC Values against: Trichoderma reesei (10^6 spores): 75 micrograms/mL
